# Assay results taken from patent US6610248B1, “Disinfectants” (Lonza AG, priority 1999, dated 2003).
# Assays:
# [1] = test system: Mycobacterium terrae ATCC 15755; assay: Quantitative suspension test using Mycobacterium terrae (Hygiene & Medizin 1997 method); assay type: cell-based; conditions: 0.3% active compound, 20° C., contact time 15 min
# Method: Using the method described in Hygiene & Medizin 1997, 22, pp. 278-283, the activity of N,N-bis(3-amino-propyl)octylamine against Mycobacterium terrae ATCC 15755 was determined under differing organic loads. The concentration of active compound was in each case 0.3%, the temperature 20° C. and the contact time 15 min. The common logarithmic reduction in bacterial count was determined each time.
# [2] = Determination of foaming (shaken mixing cylinder, foam volume read off); assay type: physicochemical; conditions: 250 ppm in demineralized water, 20° C.
# Method: A 250 ml mixing cylinder was filled with 100 ml of solution. After any foam formed in the course of this had disappeared, the sealed cylinder was shaken vigorously vertically for 15 s (approximately 15×) and then placed on a flat support. The volume of the resultant foam was read off at regular time intervals.
# [3] = test system: Escherichia coli ATCC 10536; assay: Quantitative suspension test EN 1276; assay type: cell-based; conditions: contact time 5 min, water hardness 300 mg/kg CaCO3, 20° C.
# Method: (§1) As specified by standard EN 1276, the efficacy of N,N-bis (3-aminopropyl)octylamine (according to the invention) and N,N-bis (3-aminopropyl)dodecylamine (comparison) was determined in the presence of albumin for various test microorganisms. [table]
# [4] = test system: Staphylococcus aureus ATCC 6538; assay: Quantitative suspension test EN 1276; assay type: cell-based; conditions: contact time 5 min, water hardness 300 mg/kg CaCO3, 20° C.
# Method: as §1
# [5] = test system: Enterococcus hirae ATCC 8043; assay: Quantitative suspension test EN 1276; assay type: cell-based; conditions: contact time 5 min, water hardness 300 mg/kg CaCO3, 20° C.
# Method: as §1
# [6] = test system: Pseudomonas aeruginosa ATCC 15442; assay: Quantitative suspension test EN 1276; assay type: cell-based; conditions: contact time 5 min, water hardness 300 mg/kg CaCO3, 20° C.
# Method: as §1
foam volume after 10 s [2],foam volume after 60 s [2],foam volume after a further 10 s ([2]; relative to volume at 10 s),Structure (SMILES),Log reduction in bacterial count ([1]; load: 0.3% albumin),Log reduction in bacterial count ([1]; load: 0.5% sheep's blood),Log reduction in bacterial count ([1]; load: none),concentration for log. reduction >5 ([3]; 0.03% albumin),concentration for log. reduction >5 ([3]; 0.3% albumin),concentration for log. reduction >5 ([4]; 0.03% albumin),concentration for log. reduction >5 ([4]; 0.3% albumin),concentration for log. reduction >5 ([5]; 0.03% albumin),concentration for log. reduction >5 ([5]; 0.3% albumin),concentration for log. reduction >5 ([6]; 0.03% albumin),concentration for log. reduction >5 ([6]; 0.3% albumin)
20 mL,virtually completely disappeared,decreased to half,"CCCCCCCCN(CCCN)CCCN [N,N-bis(3-aminopropyl)octylamine]",4.09,4.48,4.33,0.05%,0.05%,0.10%,0.10%,0.10%,0.05%,0.05%,0.10%
140 mL,120 mL,,"CCCCCCCCCCCCN(CCCN)CCCN [N,N-bis(3-aminopropyl)dodecylamine, reference compound]",,,,0.025%,0.025%,0.05%,0.10%,0.05%,0.05%,0.025%,0.50%
